The test system of data set [1] is human prostate cancer cells LNCaP. Description: Cell viability inhibition assay (CTG) on LNCaP cells in presence of DHT. It counts as cell-based. The settings on record: Homo sapiens, 120 h, read-out: Inhibitory activity against human prostate cancer cell LNCaP IC50. The text has this: Human prostate cancer cells LNCaP and human prostate cancer cells 22Rvl are present in patients with prostate cancer. An androgen, DHT, is able to promote the growth of human prostate cancer cells LNCaP. Using the cell model described above was intended to study the inhibitory effects of the compounds of the present disclosure on the growth of human prostate cancer cells (human prostate cancer cells LNCaP and human prostate cancer cells 22Rvl) in the presence or absence of DHT.
The medium in the culture dish was discarded, and 5 mL of trypsin was added for digestion for about 3 mins. The digestion was stopped by adding 10 mL of a fresh medium. The cells were fully pipetted and transferred to a 15 mL centrifuge tube, and the cells were collected by centrifugation at 1000 rpm for 5 mins. The cells collected by centrifugation were resuspended in 11 mL of a fresh medium. 1 mL of the cells was taken and counted, and the cell viability was detected. The cell density was adjusted to 1×10^4 cells/mL by adding an appropriate amount of the medium. The cells were seeded in a 96-well plate at 200 µL/well, and the plate was incubated overnight in a cell incubator.
After the cells were attached to the well, for the human prostate cancer cells LNCaP group, test compounds (0.1 μM, 0.3 μM, 1 μM, 3 μM, 10 μM, and 30 μM) and DHT (1 nM, inducing the expression of AR) were added to the 96-well plate, and the plate was incubated for another 5 days; for the human prostate cancer cells 22Rvl group, test compounds (0.1 μM, 0.3 μM, 1 μM, 3 μM, 10 μM, and 30 μM) were added to the 96-well plate, and the plate was incubated for another 5 days. […] The 96-well plate was equilibrated at room temperature for 30 mins. The cell viability was detected by using a CTG method. Before detection, CellTiter-Glo® Buffer and a substrate thereof (collectively called CTG reagent) were thawed and equilibrated to room temperature. Then, […] of Buffer was gently mixed with the substrate to form a homogeneous solution. The homogeneous solution was added to the 96-well plate at 100 µL/well, and the 96-well plate was incubated on a shaker for 15 mins. The fluorescence value in each well was then detected. The detection method for the fluorescence value in each well was as follows: after adding the CTG reagent, luminescence detection (integration time: 500 ms) was performed by using a correspondingly equipped multi-mode microplate reader (M200Pro, TECAN, Switzerland) according to the supplier's manual to quantify the effect of the inhibitor on the cell viability. For data analysis, an assay background value was subtracted from all data points, which was determined in wells containing the medium but no cells. Data were processed using the XLfit software (XLfit 5.2., IDBS, UK), and IC50 values of the test compounds were calculated.

Data set [2] can be described thus: Pharmacokinetic study, single oral administration to SD rats. The following applies: for AUC(0-t) / Cmax / Tmax / half-life: male, SD, rat, po, 50 mg/kg.
Protocol: Experimental method: Male SD rats were randomly grouped (3 rats per group), given ad libitum access to water during the assay, fasted for 12 or more hours before administration, and given food 4 hours after administration.
The blood was centrifuged within 60 min of being collected to isolate plasma (centrifuged at 8000 rpm at 2-8° C. for 5 min). After the centrifugation, the plasma was transferred to a 96-well plate or centrifuge tubes, transported in a box with ice, and stored at ≤−15° C. before LC-MS/MS analysis. The drug concentration in the plasma of SD rats was measured by LC-MS/MS bioanalysis, and the plasma concentration-time data were analyzed using WinNonlin™ (Version 8.3, Certara, USA) and a non-compartmental model to evaluate the pharmacokinetic (PK) profiles of the compounds in SD rats.

Where two headings read alike, the source gives them in different places.

The term IC50 denotes the concentration that inhibits the measured activity by half. The AUC(0-t) is exposure summed from dosing to a finite time, without extrapolation to infinity. Lower therefore signals less exposure. As a reminder, the Cmax is the maximum level reached in the sampled fluid or tissue. Broadly, the Tmax is the time at which the peak concentration occurs. What is called half-life is the time in which the quantity being followed falls by half.

Turning to `COc1ccc(/C=C/C(=O)C2(C(=O)/C=C/c3ccc(OC)c(OC)c3)CCC(=O)CC2)cc1OC` [Compound 7], the half-maximal inhibitory concentration (IC50) in data set [1] amounted to 830 nM. In data set [2] (in vivo), the exposure AUC(0-t) is 460 ng·h/mL, the concentration peaked (Cmax) at 298 ng/mL, the Tmax is 11.4 min and the half-life was 177 min.

As for `COc1ccc(/C=C/C(=O)C2(C(=O)/C=C/c3ccc(OC)c(OC)c3)CCC(F)(F)CC2)cc1OC` [Compound 8], the IC50 in data set [1] (1 nM DHT, 5 days, CTG) was found to be 610 nM. The “AUClast in rats (comparison in words)” value in data set [2] (SD rats, oral, same dose, FIG. 2) is listed as “higher AUClast than that of compound 7”. In addition, in data set [2] (plasma), the AUC(0-t) came to 1010 ng·h/mL, the Cmax was determined as 282 ng/mL, the Tmax was 19.8 min and the half-life is 94.2 min.

The values above are taken from patent US20250295609A1, “COMPOUND HAVING ANTI-ANDROGEN RECEPTOR ACTIVITY, AND USE THEREOF” (NANJING MINOVA PHARMACEUTICAL CO., LTD., priority 2022, published 2025).
